{
  "source": "patent US12208095B2",
  "about": "“Methods of treating breast cancer with tetrahydronaphthalene derivatives as estrogen receptor degraders” (Arvinas Operations, Inc., priority 2019, dated 2025)",
  "key": {"[1]": {"system": "tamoxifen-resistant MCF7 xenografts", "experiment": "tumor growth inhibition in tamoxifen-resistant MCF7 orthotopic xenograft model", "assay_type": "in vivo, Ovariectomized Nu/Nu female mice", "details": "Compound (I-c) 30 mg/kg oral QDx28; palbociclib 60 mg/kg oral QDx28", "method": "Species: Ovariectomized Nu/Nu female mice. Animal handling: Axial mammary fat pad implantation of tamoxifen-resistant tumor fragment (from E45 passage. SC per mouse. Tamoxifen pellet (5 mg, 60-day release) was implanted under the same anesthesia as tumor fragment (pellet—dorsal; tumor—ventral).\nDosing: Oral (gavage), once a day for 28 days (QDx28)\nSampling: Tumors were measured twice weekly. Terminal sacrifice was ˜18 hr after last dose; tumors were harvested, divided, and flash frozen. ERα levels were determined by immunoblotting (see Appendix 1 for details)."}, "rat uterine ER": {"target": "T1, rat uterine ER (Rattus norvegicus, UniProt P06211)", "T1 construct": "from tissue; host or cells: uterus of immature rats", "T1 sequence (P06211 1-600)": "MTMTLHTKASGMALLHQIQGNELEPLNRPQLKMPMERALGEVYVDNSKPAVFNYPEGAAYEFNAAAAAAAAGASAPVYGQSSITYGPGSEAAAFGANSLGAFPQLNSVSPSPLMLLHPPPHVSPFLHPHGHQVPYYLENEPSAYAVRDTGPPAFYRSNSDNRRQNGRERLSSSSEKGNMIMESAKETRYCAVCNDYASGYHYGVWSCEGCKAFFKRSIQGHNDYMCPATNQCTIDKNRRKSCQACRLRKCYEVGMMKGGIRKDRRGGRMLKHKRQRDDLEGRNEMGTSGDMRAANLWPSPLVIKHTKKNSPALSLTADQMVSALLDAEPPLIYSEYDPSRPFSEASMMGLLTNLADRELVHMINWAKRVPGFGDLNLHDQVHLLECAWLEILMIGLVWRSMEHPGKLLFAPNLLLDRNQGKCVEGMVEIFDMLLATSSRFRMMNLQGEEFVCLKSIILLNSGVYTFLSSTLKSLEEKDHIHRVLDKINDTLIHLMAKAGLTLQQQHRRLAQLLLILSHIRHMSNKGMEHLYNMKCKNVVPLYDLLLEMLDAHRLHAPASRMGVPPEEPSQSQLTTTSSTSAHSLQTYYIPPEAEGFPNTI", "experiment": "immature rat uterotrophic model", "assay_type": "in vivo", "details": "30 mg/kg once a day, oral"}, "MCF7 xenograft": {"system": "MCF7 xenograft", "experiment": "tumor growth inhibition in orthotopic MCF7/estradiol xenograft model", "assay_type": "in vivo, NOD/SCID mice", "method": "Species: NOD/SCID female mice (Charles River, 6-7 weeks old upon arrival).\nAnimal handling: Axial mammary fat pad implantation of 5×10^6 MCF7 cells/200 per mouse (17β-estradiol 0.36 mg 90-day pellet implanted day before).\nTumor volumes were evaluated twice per week for twenty-eight days.\nSampling: Tumors were measured twice weekly. Terminal sacrifice was ˜18 hr after last dose; tumors were harvested, divided, and flash frozen. ERα levels were determined by immunoblotting.\nTumor volume calculation: Tumor Volume=(width×width×length)/2, where all measurements are in mm and the tumor volume is in mm^3.\nTumor Growth Inhibition (TGI) calculation: TGI (%)\nNOD/SCID female mice (Charles River, 6-7 weeks old upon arrival) received implantation of 5×10^6 MCF7 cells/200 μL per mouse in axial mammary fat pad (17β-estradiol 0.36 mg 90-day pellet implanted day before). Compound administration was initiated once the tumors reached 200 mm^3. Diet was supplemented with peanut butter to help maintain body weights.\nThe ratio of Tween 80 to PEG-400 is 0.02 g Tween 80 to 1 ml PEG-400. PEG-400 is added to a pre-aliquoted volume of Tween 80. • For fulvestrant: 10% w/v Ethanol, 10% w/v Benzyl Alcohol, and 15% w/v Benzyl Benzoate as co-solvents and made up to 100% w/v with Castor Oil (‘EBB/Castor Oil’) • For palbociclib: 50 mM sodium lactate, pH 4.0 (‘Sodium lactate’)\nSampling: tumors were measured twice weekly. Terminal sacrifice was ˜18 hr after last dose; tumors were harvested, divided, and flash frozen. ERα levels were determined by immunoblotting."}, "ER-dependent cell lines": {"system": "ER-dependent cell lines", "experiment": "cell proliferation of ER-dependent cell lines", "assay_type": "cell-based"}},
  "data": [
    {"compound": "O=C1CC[C@H](N2Cc3cc(N4CCN(CC5CCN(c6ccc([C@@H]7c8ccc(O)cc8CC[C@@H]7c7ccccc7)cc6)CC5)CC4)ccc3C2=O)C(=O)N1", "note": "[Compound (I-c), (3S)-3-[5-[4-[[1-[4-[(1R, 2S)-6-hydroxy-2-phenyl-tetralin-1-yl]phenyl]-4-piperidyl]methyl]piperazin-1-yl]-1-oxo-isoindolin-2-yl]piperidine-2,6-dione]", "values": [
      {"measurement": "Day 0 Tumor volume (mean ± SD)", "setting": "[1]", "result": "178 ± 76", "unit": "mm^3"},
      {"measurement": "degradation of rat uterine ER", "setting": "rat uterine ER", "result": "degrades rat uterine ER"},
      {"measurement": "Day 0 Tumor volume (mean ± SD)", "setting": "MCF7 xenograft; 3 mg/kg oral QDx28, n = 10", "result": "217 ± 67", "unit": "mm^3"},
      {"measurement": "Day 0 Tumor volume (mean ± SD)", "setting": "MCF7 xenograft; 10 mg/kg oral QDx28, n = 9", "result": "218 ± 65", "unit": "mm^3"},
      {"measurement": "Day 0 Tumor volume (mean ± SD)", "setting": "MCF7 xenograft; 30 mg/kg oral QDx28, n = 10", "result": "217 ± 66", "unit": "mm^3"},
      {"measurement": "% TGI", "setting": "MCF7 xenograft; MCF7/estradiol, 30 mg/kg, summary over studies", "result": "105-124%"},
      {"measurement": "Day 0 Tumor volume (mean ± SD)", "setting": "MCF7 xenograft; combination study: Compound (I-c) 30 mg/kg oral QDx28, palbociclib 60 mg/kg oral QDx28, fulvestrant 200 mg/kg SC, n = 10", "result": "199 ± 55", "unit": "mm^3"},
      {"measurement": "cell proliferation of ER-dependent cell lines", "setting": "ER-dependent cell lines", "result": "inhibits cell proliferation"}
    ]}
  ]
}
